Test results published in patent US20170095440A1, “METHOD OF TREATING CANINE PANCREATITIS” (CK9, LLC, priority 2014, published 2017).
Entries after “also recorded” stand apart in the source; their conditions may differ.

Experiments:
[1] = tested on: dogs with suspected chronic pancreatitis; assay: Serum C-reactive protein before and after treatment, clinical trial; assay type: in vivo, dog; settings: for Change in serum C-reactive protein, pre- vs post-treatment: methanesulfonate
Protocol: (§1) Treatment effects on overall health status, quality of life, and clinical signs were also evaluated with serum biochemistry profiles, complete blood counts, and owner questionnaires.
(§2) Dogs were identified by screening current submissions to the Gastrointestinal Laboratory at Texas A&M indicative of pancreatitis (canine pancreas-specific lipase≧400 μg/L) using an immunoassay for measurement of canine pancreas-specific lipase in canine serum known as the spec CPL® Test (IDEXX, Laboratories). A number of potential study participants were directly referred to the investigator by veterinarians, based on positive pet-side SNAP cPL® Test (IDEXX Laboratories, Westbrook, Me., USA) results and concomitant clinical signs. After ascertaining individual suitability of a patient with the referring veterinarian, serum canine pancreas-specific lipase concentration, serum biochemistry profile, and complete blood count were evaluated or re-evaluated 12±4 days after collection of the initial sample submission to the Gastrointestinal Laboratory. Based on the assumption that consecutive canine pancreas-specific lipase elevations indicate chronic pancreatitis, enrollment was offered for patients with canine pancreas-specific lipase concentrations≧400 μg/L, serum triglyceride concentrations below 500 mg/dL, and no indication of hepatic, renal, or other organ disease. […] Owner consent was required prior to phlebotomy and for enrollment into the trial.
(§3) Twelve enrolled dogs received camostat capsules at a dosage of 4 mg/kg q 8 hrs, for a total dose of 12 mg/kg q 24 hrs. […] Individual patients were medicated for between 21 to 31 days.
(§4) Blood samples were collected before beginning the treatment and after completion of the treatment period. Complete blood count (red blood cell count, hematocrit, mean corpuscular volume, mean corpuscular hemoglobin, mean corpuscular hemoglobin concentration, differential and absolute white blood cell count, red blood cell count, hemoglobin, platelet estimate, red blood cell morphology, white blood cell morphology, and hemoparasites) was evaluated at the Texas Veterinary Medical Diagnostic Laboratory (TVMDL). A serum chemistry profile with electrolytes (glucose, blood urea nitrogen, creatinine, calcium, phosphorus, albumin, total protein, total bilirubin, alkaline phosphatase, alanine amino transferase, aspartate amino transferase, γ-glutamyl transferase, cholesterol, triglycerides, globuline, sodium, potassium, and chloride) was performed on a SIRRUS analyzer (Stanbio, Boerne, Tex., USA). […]
(§5) Pre-treatment and post-treatment results for all diagnostic tests were statistically analyzed using Prism 6 (GraphPad Software, La Jolla, Calif., USA). […]

[2] = tested on: dogs with suspected chronic pancreatitis; assay: Adverse drug reactions, complete blood count and serum biochemistry profile, clinical trial; assay type: in vivo, dog
Protocol: as §1, §3
Patients were treated at home and their overall health was monitored by their owners and the referring physician.
(§6) Blood samples were collected before beginning the treatment and after completion of the treatment period. Complete blood count (red blood cell count, hematocrit, mean corpuscular volume, mean corpuscular hemoglobin, mean corpuscular hemoglobin concentration, differential and absolute white blood cell count, red blood cell count, hemoglobin, platelet estimate, red blood cell morphology, white blood cell morphology, and hemoparasites) was evaluated at the Texas Veterinary Medical Diagnostic Laboratory (TVMDL). A serum chemistry profile with electrolytes (glucose, blood urea nitrogen, creatinine, calcium, phosphorus, albumin, total protein, total bilirubin, alkaline phosphatase, alanine amino transferase, aspartate amino transferase, γ-glutamyl transferase, cholesterol, triglycerides, globuline, sodium, potassium, and chloride) was performed on a SIRRUS analyzer (Stanbio, Boerne, Tex., USA). Serum concentrations of cPL (RI: 0-200 μg/L; Spec cPL® IDEXX Laboratories, Westbrook, Me., USA), cTLI (RI: 5.7-45.2 μg/L; Canine TLI DOUBLE ANTIBODY®, Siemens Healthcare Diagnostics, Los Angeles, Calif., USA), cobalamin (RI: 251-908 ng/L), and folate (RI: 7.7-24.4 μg/L; Immulite 2000®, Siemens Healthcare Diagnostics Inc., Deerfield, Ill., USA), canine specific C-reactive protein (RI: 0-7.6 mg/L, Tridelta Development Limited, Maynooth, CO. Kildare, Ireland), S100A12 (RI: 56-331 μg/L, Gastrointestinal Laboratory in-house radioimmunoassay), and TGF-β1 (RI: 38-72 ng/mL; Quantikine® ELISA, R&D Systems, Minneapolis, […]., USA) were performed at the Gastrointestinal Lab at Texas A&M University.
(§7) Pre-treatment and post-treatment results for all diagnostic tests were statistically analyzed using Prism 6 (GraphPad Software, La Jolla, Calif., USA). The D'Agostino-Pearson omnibus test was used to evaluate all datasets for Gaussian distribution. Groups were compared using a paired t-test for normally-distributed data sets and a Wilcoxon matched-pairs test when Gaussian distribution could not be assumed. Mean values and standard deviation are reported for data sets with Gaussian distribution. Median and minimum/maximum values are reported for data sets where Gaussian distribution could not be assumed. The significance threshold was set at p=0.05.

[3] = tested on: dogs with suspected chronic pancreatitis; assay: Serum canine pancreas-specific lipase (cPL/cPLI, Spec cPL) before and after treatment, clinical trial; assay type: in vivo, dog; settings: for Change in serum cPL/cPLI, pre- vs post-treatment (Wilcoxon matched-pair): methanesulfonate
Protocol: as §2
[…] […] Individual patients were medicated for between 21 to 31 days.
as §6
Additionally, samples that exceeded the working range of the Spec cPL assay were diluted and re-analyzed.
as §7

rats = settings: cited from earlier work
[4] = tested on: dogs with suspected chronic pancreatitis; assay: Serum S100A12 before and after treatment, clinical trial; assay type: in vivo, dog; settings: for Change in serum S100A12, pre- vs post-treatment: methanesulfonate
Protocol: as §1, §2, §3, §4, §5

[5] = all treated dogs combined, n=29, trend towards a decrease

Q: Which results are given for `CN(C)C(=O)COC(=O)Cc1ccc(OC(=O)c2ccc(NC(=N)N)cc2)cc1` [Camostat Mesilate, N,N-dimethylcarbamoylmethyl-4-(4-guanidinobenzoyloxy)phenylacetate methanesulfonate]?
A: Change in serum C-reactive protein, pre- vs post-treatment ([1]; 4 mg/kg q 8 hrs, n=12): no significant difference; also recorded: did not change significantly; Serum C-reactive protein concentration post-treatment (median) ([1]; 4 mg/kg q 8 hrs, n=12, pre-treatment median 0.8, post range 0.0-9.4, p=0.1543): 0.6 mg/L; Serum C-reactive protein concentration post-treatment (median) ([1]; all treated dogs combined, n=29, pre-treatment median 0.2, p=0.0595): 0.1 mg/L; Change in serum C-reactive protein, pre- vs post-treatment [1, 5]: no statistically significant difference; also recorded: did not lead to any significant changes; Adverse drug reactions ([2]; 4 mg/kg q 8 hrs, 12 dogs, reported in two dogs): increased flatulence; Adverse drug reactions ([2]; 8 mg/kg q 8 hrs, 17 dogs, each sign in one dog, methanesulfonate): pruritus in one front paw; also recorded: increased flatulence; Complete blood count and serum biochemistry parameters, pre- vs post-treatment ([2]; all treated dogs): no statistically significant differences; Increase in serum aspartate amino transferase activity after treatment ([2]; another individual dog): 6 fold; Side effects overall ([2]; both dosages (12 or 24 mg/kg q d), 26±5 days): very mild side effects; Other clinical signs suggestive of an adverse drug reaction ([2]; either group (4 or 8 mg/kg q 8 hrs)): No other clinical signs suggestive of an adverse drug reaction were observed; Increase in serum γ-glutamyl transferase activity after treatment ([2]; one individual dog): 35 fold; Increase in aspartate amino transferase activity after treatment ([2]; one individual dog (same dog as the γ-glutamyl transferase increase)): 6 fold; Serum cPL/cPLI concentration post-treatment (median) ([3]; 4 mg/kg q 8 hrs oral capsules, 21-31 days, n=12, pre-treatment median 501, post range 125-2,836, p=0.9697): 453 µg/L; Change in serum cPL/cPLI, pre- vs post-treatment (Wilcoxon matched-pair) ([3]; 4 mg/kg q 8 hrs, n=12): no significant difference; also recorded: did not change significantly; Change in serum cPL/cPLI, pre- vs post-treatment (Wilcoxon matched-pair) ([3]; 8 mg/kg q 8 hrs (24 mg/kg q d), n=17): significant difference; also recorded: statistically significant change; also recorded: statistically significant decrease; Serum cPL/cPLI concentration post-treatment (median) ([3]; 8 mg/kg q 8 hrs oral capsules, 21-31 days, n=17, pre-treatment median 882, post range 193-2,580, p=0.0232): 633 µg/L; Serum cPL/cPLI concentration post-treatment (median) ([3]; all treated dogs combined, n=29, pre-treatment median 690, post range 125-2,836, p=0.0903 or 0.0562): 514 µg/L; Change in serum cPL/cPLI, pre- vs post-treatment (Wilcoxon matched-pair) [3, 5]: no statistically significant difference; Clinical signs up to 30 minutes postdose (rats; 1300 mg/kg/day): preening and a slight decrease in locomotor activity; Body weight gain (rats; 550 and 1300 mg/kg/day): suppressed; Clinical signs immediately after dosing (rats; all treated groups: 100, 235, 550, 1300 mg/kg/day, 90 and 180 days): hypersalivation; Change in serum S100A12, pre- vs post-treatment ([4]; 4 mg/kg q 8 hrs, n=11): decreased significantly; Serum S100A12 concentration post-treatment (median) ([4]; 4 mg/kg q 8 hrs, n=11, pre-treatment median 160, post range 43-449, p=0.0010): 88 µg/L; Change in serum S100A12, pre- vs post-treatment ([4]; all treated dogs combined, n=28): no significant difference; also recorded: did not change significantly; also recorded: did not lead to any significant changes; Serum S100A12 concentration post-treatment (median) ([4]; all treated dogs combined, n=28, pre-treatment median 154, post range 43-746, p=0.1438): 133 µg/L
